Assay results published in ChEMBL document CHEMBL1132669, “New generation dopaminergic agents. 7. Heterocyclic bioisosteres that exploit the 3-OH-phenoxyethylamine D2 template” (Bioorg Med Chem Lett, 1999).
Each block holds one molecule with its values, some of them ahead of it. The source made the active and inactive calls. The calls are words filed in the database; no cut-off is given here.

What was measured:
[1] = molecular target: T1, D(4) dopamine receptor (Homo sapiens, UniProt P21917); experiment: Inhibition of [3H]spiperone binding to human Dopamine receptor D4.4 expressed in CHO cell membranes
T1 sequence (P21917 whole entry): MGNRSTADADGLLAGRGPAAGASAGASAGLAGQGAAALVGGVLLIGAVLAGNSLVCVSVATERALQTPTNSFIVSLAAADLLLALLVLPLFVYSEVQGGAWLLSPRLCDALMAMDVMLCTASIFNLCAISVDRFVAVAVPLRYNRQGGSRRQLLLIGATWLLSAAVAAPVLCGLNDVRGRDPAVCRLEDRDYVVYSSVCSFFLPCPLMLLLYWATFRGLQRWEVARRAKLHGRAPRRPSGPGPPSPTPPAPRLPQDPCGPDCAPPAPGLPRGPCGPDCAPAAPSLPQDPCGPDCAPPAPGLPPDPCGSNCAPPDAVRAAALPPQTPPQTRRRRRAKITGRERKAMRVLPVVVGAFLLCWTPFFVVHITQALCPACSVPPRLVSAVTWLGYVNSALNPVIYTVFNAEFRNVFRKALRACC

[2] = molecular target: T2, D(2) dopamine receptor (Rattus norvegicus, UniProt P61169); experiment: Inhibition of [3H]spiperone binding to rat striatal membrane Dopamine receptor D2 low affinity without GTP and sodium
T2 sequence (P61169 whole entry): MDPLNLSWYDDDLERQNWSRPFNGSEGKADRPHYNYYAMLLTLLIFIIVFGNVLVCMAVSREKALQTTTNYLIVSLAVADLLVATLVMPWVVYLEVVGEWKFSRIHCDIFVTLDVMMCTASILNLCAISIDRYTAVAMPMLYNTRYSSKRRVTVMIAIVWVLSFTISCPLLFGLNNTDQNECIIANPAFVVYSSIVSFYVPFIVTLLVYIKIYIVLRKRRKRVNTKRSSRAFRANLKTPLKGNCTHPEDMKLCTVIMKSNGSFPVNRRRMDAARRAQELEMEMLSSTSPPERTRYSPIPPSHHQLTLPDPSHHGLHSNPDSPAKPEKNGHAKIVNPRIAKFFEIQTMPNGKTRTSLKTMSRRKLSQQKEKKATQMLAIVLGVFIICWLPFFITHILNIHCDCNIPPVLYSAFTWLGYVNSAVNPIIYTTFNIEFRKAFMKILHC

[3] = molecular target: T2, D(2) dopamine receptor; experiment: Inhibition of [3H]quinpirole binding to rat striatal membrane Dopamine receptor D2 without GTP and sodium
[4] = molecular target: D(2) dopamine receptor (Homo sapiens, UniProt P14416); experiment: Inhibition of [3H]spiperone binding to human Dopamine receptor D2 in CHO cell membranes
D(2) dopamine receptor (Homo sapiens, UniProt P14416), sequence (P14416 whole entry): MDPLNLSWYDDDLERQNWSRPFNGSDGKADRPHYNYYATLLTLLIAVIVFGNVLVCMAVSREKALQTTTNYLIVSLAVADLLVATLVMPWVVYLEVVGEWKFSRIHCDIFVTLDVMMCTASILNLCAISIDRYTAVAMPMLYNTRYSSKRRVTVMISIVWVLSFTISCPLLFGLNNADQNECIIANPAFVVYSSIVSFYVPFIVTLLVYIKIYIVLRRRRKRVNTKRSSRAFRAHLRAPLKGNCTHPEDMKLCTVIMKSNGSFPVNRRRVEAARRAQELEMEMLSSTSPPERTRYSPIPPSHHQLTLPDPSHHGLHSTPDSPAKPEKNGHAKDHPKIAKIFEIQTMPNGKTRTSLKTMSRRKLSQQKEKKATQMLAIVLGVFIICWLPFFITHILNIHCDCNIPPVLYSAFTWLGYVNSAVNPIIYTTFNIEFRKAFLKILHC

[5] = molecular target: D(3) dopamine receptor (Homo sapiens, UniProt P35462); experiment: Inhibition of [3H]spiperone binding to human Dopamine receptor D3 in CHO cell membranes
D(3) dopamine receptor, sequence (P35462 whole entry): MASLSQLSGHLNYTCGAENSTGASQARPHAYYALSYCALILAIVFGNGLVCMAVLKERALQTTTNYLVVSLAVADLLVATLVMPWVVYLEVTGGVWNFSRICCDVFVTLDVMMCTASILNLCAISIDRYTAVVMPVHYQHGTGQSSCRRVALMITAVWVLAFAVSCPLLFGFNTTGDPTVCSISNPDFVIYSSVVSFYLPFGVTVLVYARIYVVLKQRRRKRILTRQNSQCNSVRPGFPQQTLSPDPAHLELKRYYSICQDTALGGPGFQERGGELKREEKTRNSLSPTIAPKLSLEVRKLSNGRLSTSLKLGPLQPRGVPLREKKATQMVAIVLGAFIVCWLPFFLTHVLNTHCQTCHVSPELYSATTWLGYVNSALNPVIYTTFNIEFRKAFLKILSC

[6] = molecular target: D(2) dopamine receptor (Rattus norvegicus) (UniProt P61169); experiment: Relative binding affinity for low and hugh affinity type dopamine D2 receptors in rat striatal membranes; type: cell membranes; conditions: Striatum, Membrane
D(2) dopamine receptor (Rattus norvegicus), sequence (P61169 whole entry): as the sequence (P61169 whole entry) above

[7] = test system: Mus musculus; experiment: In vivo inhibitory activity against spontaneous locomotory activity in mice administered subcutaneously; type: functional; conditions: sc
[8] = test system: Mus musculus; experiment: Inhibitory activity against apomorphine-induced climbing in mice administered subcutaneously at 3 mg/kg; NS is not significant; type: functional, organism-based; parameters: dose 3 mg/kg
[9] = test system: Mus musculus; experiment: Inhibitory activity against Sterotypy in mice administered subcutaneously at 3 mg/kg; NS is not significant; type: functional, organism-based; parameters: dose 3 mg/kg
[10] = test system: Mus musculus; experiment: Inhibitory activity against Sterotypy in mice administered subcutaneously; type: functional; conditions: sc
[11] = test system: Mus musculus; experiment: Inhibitory activity against apomorphine-induced climbing in mice administered subcutaneously; type: functional; conditions: sc

SMILES: O=c1[nH]c2cccc(OCCNCc3ccccc3)c2[nH]1
Ki [1]: 6.3 nM | Ki [2]: 4.7 nM | Ki [3]: 0.18 nM

SMILES: Sc1nc2c(OCCNCc3ccccc3)cccc2[nH]1
Ratio [6]: 14

SMILES: FC(F)(F)c1nc2c(OCCNCc3ccccc3)cccc2[nH]1
Ki [1]: 3.1 nM | Ki [2]: 1.9 nM | Ki [3]: 0.18 nM | Ki [4]: 1.75 nM | Ki [5]: 1.15 nM | ED50 [7]: 0.007 mg/kg | ED50 [10]: 0.33 mg/kg | ED50 [11]: 0.09 mg/kg | Ratio [6]: 10

SMILES: Cc1nc2c(OCCNCc3ccccc3)cccc2[nH]1
Ki [1]: 61.1 nM | Ki [2]: 26.6 nM | Ki [3]: 4.4 nM | Ki [4]: 15.2 nM | Ki [5]: 94.6 nM | Ratio [6]: 6

SMILES: Oc1nc2c(OCCNCc3ccccc3)cc(Cl)cc2[nH]1
Ratio [6]: 11

SMILES: c1ccc(CNCCOc2cccc3[nH]ncc23)cc1
Ki [1]: 315 nM | Ki [2]: 35.9 nM | Ki [3]: 1.1 nM | Ki [4]: 79.8 nM | Ki [5]: 8.8 nM | Ratio [6]: 33

SMILES: c1ccc(CNCCOc2cccc3[nH]ccc23)cc1
Ki [1]: 230 nM | Ki [4]: 81.8 nM | Ki [5]: 19.5 nM | Ratio [6]: 4

SMILES: O=C1Cc2c(cccc2OCCNCc2ccccc2)N1
Ki [1]: 10 nM | Ki [4]: 4.25 nM | Ki [5]: 2.8 nM | Ratio [6]: 54

SMILES: O=c1[nH]c2cc(Cl)cc(OCCNCc3ccccc3)c2[nH]1
Ki [1]: 15.8 nM | Ki [2]: 2.7 nM | Ki [3]: 0.25 nM | Ki [4]: 2.6 nM | Ki [5]: 7.4 nM

Second part, led by results:

Ki [1]: 11.2 nM | Ki [2]: 4.5 nM | Ki [3]: 0.21 nM | Ki [4]: 6.5 nM | Ki [5]: 12.2 nM | Ratio [6]: 21
SMILES: Sc1nc2c(OCCNCc3ccccc3)cc(Cl)cc2[nH]1

Ki [1]: 3.8 nM | Ki [2]: 2.6 nM | Ki [3]: 0.18 nM | Ki [4]: 3 nM | Ki [5]: 2 nM
SMILES: S=c1[nH]c2cccc(OCCNCc3ccccc3)c2[nH]1

Ki [1]: 7 nM | Ki [2]: 11.6 nM | Ki [3]: 0.71 nM | Ki [4]: 32.4 nM | Ki [5]: 41.8 nM | Ratio [6]: 16
SMILES: FC(F)(F)c1nc2c(OCCNCc3ccccc3)cc(Cl)cc2[nH]1
ED50 [7]: 0.35 mg/kg | ED50 [8]: inactive | ED50 [9]: inactive

Ratio [6]: 28
SMILES: Oc1cccc(OCCNCc2ccccc2)c1

Ratio [6]: 13
SMILES: c1ccc(CNCCOc2cccc3[nH]cnc23)cc1

Ki [1]: 51.6 nM | Ki [2]: 128 nM | Ki [3]: 9.8 nM | Ki [4]: 85.6 nM | Ki [5]: 67.2 nM
SMILES: c1ccc(CNCCOc2cccc3nc[nH]c23)cc1
